Experimental data taken from patent US20150272939A1, “Identification of Small Molecule Inhibitors of Jumonji AT-Rich Interactive Domain 1A (JARID1A) and 1B (JARID1B) Histone Demethylase” (Yale University, priority 2012, published 2015).
pIC50: −log10 of the molar value. Where “and” joins values, the source holds several entries; their conditions need not be identical. Equal entries are not always repeated. Entries after “also recorded” stand apart in the source; their conditions may differ.

What was measured:
JARID1A = biological target: T1, JARID1A (Homo sapiens, UniProt P29375); assay: FLAG-JARID1A histone demethylase assay with AlphaScreen detection (HTS and dose response); assay type: biochemical
T1 construct: the high-throughput screen of the invention utilizes full length JARID1A or JARID1B; FLAG (N); made in house; host or cells: Sf21 insect cells (baculovirus)
T1 sequence (P29375 whole entry): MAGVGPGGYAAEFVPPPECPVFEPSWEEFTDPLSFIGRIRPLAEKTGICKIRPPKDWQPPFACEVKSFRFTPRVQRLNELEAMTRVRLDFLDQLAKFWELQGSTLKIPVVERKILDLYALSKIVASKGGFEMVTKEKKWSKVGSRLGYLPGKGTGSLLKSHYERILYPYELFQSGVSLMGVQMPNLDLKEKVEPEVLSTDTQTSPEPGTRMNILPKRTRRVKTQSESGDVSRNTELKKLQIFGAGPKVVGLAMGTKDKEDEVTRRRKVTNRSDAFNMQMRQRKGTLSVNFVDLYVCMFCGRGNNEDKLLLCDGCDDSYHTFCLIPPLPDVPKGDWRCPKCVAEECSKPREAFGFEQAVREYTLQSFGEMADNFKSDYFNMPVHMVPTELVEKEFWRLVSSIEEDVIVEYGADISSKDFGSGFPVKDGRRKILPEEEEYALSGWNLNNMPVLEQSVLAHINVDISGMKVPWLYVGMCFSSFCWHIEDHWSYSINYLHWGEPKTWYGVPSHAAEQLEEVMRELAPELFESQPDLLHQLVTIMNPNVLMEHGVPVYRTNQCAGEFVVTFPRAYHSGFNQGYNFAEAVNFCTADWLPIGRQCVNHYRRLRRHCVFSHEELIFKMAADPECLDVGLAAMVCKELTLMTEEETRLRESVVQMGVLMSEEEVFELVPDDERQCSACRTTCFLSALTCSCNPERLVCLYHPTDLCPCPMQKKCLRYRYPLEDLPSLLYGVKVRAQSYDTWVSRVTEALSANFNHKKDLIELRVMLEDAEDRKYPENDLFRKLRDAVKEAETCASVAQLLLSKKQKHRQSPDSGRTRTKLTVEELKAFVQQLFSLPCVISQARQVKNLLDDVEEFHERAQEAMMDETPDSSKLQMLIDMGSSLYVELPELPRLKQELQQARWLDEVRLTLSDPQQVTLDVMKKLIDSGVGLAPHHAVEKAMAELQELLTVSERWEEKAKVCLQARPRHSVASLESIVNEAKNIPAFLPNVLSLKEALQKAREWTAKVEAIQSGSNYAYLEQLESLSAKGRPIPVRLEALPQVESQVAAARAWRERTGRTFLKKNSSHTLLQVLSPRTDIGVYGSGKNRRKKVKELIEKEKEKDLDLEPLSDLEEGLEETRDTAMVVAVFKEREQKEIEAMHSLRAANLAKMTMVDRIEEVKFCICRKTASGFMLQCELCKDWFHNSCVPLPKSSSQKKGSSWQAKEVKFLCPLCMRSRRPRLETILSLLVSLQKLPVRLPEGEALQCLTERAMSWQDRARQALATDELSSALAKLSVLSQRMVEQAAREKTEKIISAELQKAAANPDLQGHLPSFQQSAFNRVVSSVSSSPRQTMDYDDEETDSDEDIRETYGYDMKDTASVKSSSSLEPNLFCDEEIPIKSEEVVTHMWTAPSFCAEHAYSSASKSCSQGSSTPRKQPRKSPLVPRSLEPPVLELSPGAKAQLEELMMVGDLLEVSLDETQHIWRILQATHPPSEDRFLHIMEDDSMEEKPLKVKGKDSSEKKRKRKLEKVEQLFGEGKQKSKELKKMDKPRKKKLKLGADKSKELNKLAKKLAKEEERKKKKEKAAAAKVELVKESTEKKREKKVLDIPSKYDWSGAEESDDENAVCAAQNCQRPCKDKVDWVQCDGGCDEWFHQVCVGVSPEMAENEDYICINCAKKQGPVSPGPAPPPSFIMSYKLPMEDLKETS
Description: (§1) Histone demethylase assays were performed in 384 well white plates (Corning 3574). Demethylase buffer conditions for FLAG-JARID1B were as follows: 10 μM α-KG, 100 μM ascorbate, 50 μM (NH4)2Fe(SO4)2, 50 mM Hepes (pH 7.5), 0.01% (v/v) Tween 20, and 0.1% (w/v) bovine serum albumin. The demethylase reactions included 64 nM bio-H3K4me3 peptide alone or in the presence of 4 nM FLAG-JARID1B enzyme in a 10 μl reaction at 25° C. for 30 minutes. As a positive control, 64 nM bio-H3K4me2 peptide was assayed in the absence of enzyme. Assay conditions for FLAG-JARID1C is the same as for FLAG-JARID1B except that 20 nM enzyme was used. For FLAG-JARID1A, the demethylase buffer was similar to FLAG-JARID1B, except that 125 μM α-KG and 13 nM FLAG-JARID1A enzyme were used. The His-FLAG-UTX and FLAG-JMJD3 demethylase assays also employed the same buffer conditions as for FLAG-JARID1B, with 64 nM bio-H3K27me3 peptide assayed with or without 25 nM His-FLAG-UTX enzyme or 50 nM FLAG-JMJD3 (BPS Bioscience, 50115), and 64 nM bio-H3K27me2 peptide as a positive control. JARID1A, JARID1C, UTX, and JMJD3 histone demethylase assays proceeded at 37° C. for 1 hour.
(§2) The AlphaScreen General IgG (Protein A) detection kit was obtained from PerkinElmer. Demethylated H3K4 products were detected using AlphaScreen antibody/bead mix containing 7.5 mM ethylenediaminetetraacetic acid (EDTA) and 0.15 μg/ml anti-H3K4me1 antibody in a final volume of 20 μl. For detection of demethylated H3K27 products, the AlphaScreen antibody/bead mix containing 7.5 mM EDTA and 0.15 μg/ml anti-H3K27me2 antibody in a final volume of 20 μl. The luminescence signal was measured using the Envision (PerkinElmer) or Pherastar (BMG Labtech) Platereaders.
FLAG-JARID1A was screened against 9,600 compounds. These compound libraries were from the Yale Center for Molecular Discovery. The libraries screened include the MicroSource Gen-Plus, MicroSource Pure Natural Products, NIH Clinical Collection, Enzo Epigenetics, and ChemBridge MW-Set libraries. Compounds dissolved in dimethyl sulfoxide (DMSO) were pintooled into a 384 well plate containing bio-H3K4me3 peptide in demethylase buffer to a final concentration of 20 μM. The reactions were initiated by the addition of 13 nM FLAG-JARID1A, and detected as described above. To eliminate the false positive hits, a counterscreen was performed against bio-H3K4me2 in the absence of enzyme.

UTX = biological target: T2, UTX (Homo sapiens, UniProt O15550); assay: His-FLAG-UTX H3K27me3 demethylase assay with AlphaScreen detection; assay type: biochemical; conditions: compound 10 μM, 64 nM bio-H3K27me3 peptide
T2 construct: His (N); FLAG (N); made in house; host or cells: Sf21 insect cells (baculovirus)
T2 sequence (O15550 whole entry): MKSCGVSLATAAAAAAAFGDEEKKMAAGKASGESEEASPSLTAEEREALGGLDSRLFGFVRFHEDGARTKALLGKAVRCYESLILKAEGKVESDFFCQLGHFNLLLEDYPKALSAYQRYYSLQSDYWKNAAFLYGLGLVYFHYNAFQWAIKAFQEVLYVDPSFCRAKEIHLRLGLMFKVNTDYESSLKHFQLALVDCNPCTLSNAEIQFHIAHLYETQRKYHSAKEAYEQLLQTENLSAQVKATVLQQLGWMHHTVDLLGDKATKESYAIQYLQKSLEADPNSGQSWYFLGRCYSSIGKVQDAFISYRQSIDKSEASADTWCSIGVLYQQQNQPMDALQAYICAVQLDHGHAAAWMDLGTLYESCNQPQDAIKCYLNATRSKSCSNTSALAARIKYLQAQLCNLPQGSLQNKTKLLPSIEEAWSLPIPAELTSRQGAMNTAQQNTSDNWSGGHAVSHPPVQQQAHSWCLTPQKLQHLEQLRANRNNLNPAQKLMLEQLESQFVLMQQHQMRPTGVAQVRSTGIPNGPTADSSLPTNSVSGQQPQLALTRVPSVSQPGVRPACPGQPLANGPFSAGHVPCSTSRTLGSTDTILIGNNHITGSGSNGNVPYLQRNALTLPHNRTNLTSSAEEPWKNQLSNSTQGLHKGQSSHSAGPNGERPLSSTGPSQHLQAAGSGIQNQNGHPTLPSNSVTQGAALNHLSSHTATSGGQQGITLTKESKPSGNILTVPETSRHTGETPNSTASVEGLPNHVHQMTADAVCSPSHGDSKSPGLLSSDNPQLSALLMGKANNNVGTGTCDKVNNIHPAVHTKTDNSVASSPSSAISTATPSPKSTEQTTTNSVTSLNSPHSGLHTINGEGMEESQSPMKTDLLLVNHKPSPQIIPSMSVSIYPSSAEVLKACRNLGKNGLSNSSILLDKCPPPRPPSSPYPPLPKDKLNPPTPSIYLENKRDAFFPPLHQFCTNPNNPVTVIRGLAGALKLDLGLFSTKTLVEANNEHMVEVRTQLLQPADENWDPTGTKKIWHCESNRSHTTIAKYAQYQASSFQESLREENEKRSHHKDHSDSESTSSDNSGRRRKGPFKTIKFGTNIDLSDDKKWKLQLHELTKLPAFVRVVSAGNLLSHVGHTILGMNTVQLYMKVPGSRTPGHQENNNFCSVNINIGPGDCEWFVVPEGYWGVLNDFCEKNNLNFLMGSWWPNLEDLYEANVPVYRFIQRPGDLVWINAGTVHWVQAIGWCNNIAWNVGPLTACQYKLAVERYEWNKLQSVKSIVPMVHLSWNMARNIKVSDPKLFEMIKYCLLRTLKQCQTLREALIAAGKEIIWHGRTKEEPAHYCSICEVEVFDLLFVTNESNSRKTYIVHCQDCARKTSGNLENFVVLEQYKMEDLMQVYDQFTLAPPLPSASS
Description: as §1, with “The His-FLAG-UTX and FLAG-JMJD3 demethylase assays also employed the same buffer conditions as for FLAG-JARID1B, with 64 nM bio-H3K27me3 peptide assayed with or without 25 nM His-FLAG-UTX enzyme or 50 nM FLAG-JMJD3 (BPS Bioscience, 50115), and 64 nM bio-H3K27me2 peptide as a positive control. JARID1A, JARID1C, UTX, and JMJD3 histone demethylase assays proceeded at 37° C. for 1 hour.” left out
as §2, with “For detection of demethylated H3K27 products, the AlphaScreen antibody/bead mix containing 7.5 mM EDTA and 0.15 μg/ml anti-H3K27me2 antibody in a final volume of 20 μl.” left out

JMJD3 = biological target: T3, JMJD3 (Homo sapiens, UniProt O15054); assay: FLAG-JMJD3 H3K27me3 demethylase assay with AlphaScreen detection; assay type: biochemical; conditions: compound 10 μM, 64 nM bio-H3K27me3 peptide
T3 construct: FLAG (N); purchased BPS Bioscience 50115
T3 sequence (O15054 1-1682 isoform O15054-1): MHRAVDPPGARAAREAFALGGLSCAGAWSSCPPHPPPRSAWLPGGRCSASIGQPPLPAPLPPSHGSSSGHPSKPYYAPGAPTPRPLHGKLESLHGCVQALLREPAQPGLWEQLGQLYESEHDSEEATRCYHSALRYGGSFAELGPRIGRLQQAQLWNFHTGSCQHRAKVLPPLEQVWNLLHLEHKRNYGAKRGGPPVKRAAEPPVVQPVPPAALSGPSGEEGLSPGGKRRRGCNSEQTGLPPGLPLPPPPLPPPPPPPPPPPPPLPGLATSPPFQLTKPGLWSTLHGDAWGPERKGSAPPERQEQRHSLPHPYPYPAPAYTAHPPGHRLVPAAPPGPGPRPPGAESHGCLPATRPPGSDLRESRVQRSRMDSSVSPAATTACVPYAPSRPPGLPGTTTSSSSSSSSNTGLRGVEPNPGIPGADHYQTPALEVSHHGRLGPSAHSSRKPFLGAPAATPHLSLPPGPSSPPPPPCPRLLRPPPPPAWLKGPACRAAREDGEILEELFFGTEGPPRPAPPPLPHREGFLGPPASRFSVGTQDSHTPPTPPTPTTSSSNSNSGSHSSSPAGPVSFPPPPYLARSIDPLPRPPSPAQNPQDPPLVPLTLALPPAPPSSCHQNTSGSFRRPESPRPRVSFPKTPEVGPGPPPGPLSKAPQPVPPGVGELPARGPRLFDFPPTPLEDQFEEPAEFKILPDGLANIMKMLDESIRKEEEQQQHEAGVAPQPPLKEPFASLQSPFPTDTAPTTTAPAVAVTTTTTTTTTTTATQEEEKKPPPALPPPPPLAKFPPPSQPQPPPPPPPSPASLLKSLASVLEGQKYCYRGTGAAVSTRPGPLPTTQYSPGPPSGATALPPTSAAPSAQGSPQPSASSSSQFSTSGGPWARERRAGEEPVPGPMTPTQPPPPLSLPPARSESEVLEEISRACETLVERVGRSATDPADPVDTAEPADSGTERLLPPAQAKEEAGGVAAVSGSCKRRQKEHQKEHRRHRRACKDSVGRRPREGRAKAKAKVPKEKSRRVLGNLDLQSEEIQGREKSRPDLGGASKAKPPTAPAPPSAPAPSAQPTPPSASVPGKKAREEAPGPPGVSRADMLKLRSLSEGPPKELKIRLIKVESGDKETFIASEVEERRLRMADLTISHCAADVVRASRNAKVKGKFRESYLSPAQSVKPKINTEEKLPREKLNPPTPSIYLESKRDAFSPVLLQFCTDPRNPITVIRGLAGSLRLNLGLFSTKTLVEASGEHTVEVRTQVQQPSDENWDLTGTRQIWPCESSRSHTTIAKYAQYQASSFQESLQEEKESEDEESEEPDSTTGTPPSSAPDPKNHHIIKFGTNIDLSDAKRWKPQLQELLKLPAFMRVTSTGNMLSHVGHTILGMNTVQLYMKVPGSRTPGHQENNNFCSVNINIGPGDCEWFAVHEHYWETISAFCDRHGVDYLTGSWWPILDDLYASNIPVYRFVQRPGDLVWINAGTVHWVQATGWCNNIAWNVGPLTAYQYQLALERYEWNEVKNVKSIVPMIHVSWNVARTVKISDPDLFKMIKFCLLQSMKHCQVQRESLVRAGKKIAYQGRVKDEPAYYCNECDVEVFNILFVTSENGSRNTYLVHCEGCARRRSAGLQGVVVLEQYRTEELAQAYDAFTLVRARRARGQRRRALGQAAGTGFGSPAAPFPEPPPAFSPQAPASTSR
Description: as §1, with “The His-FLAG-UTX and FLAG-JMJD3 demethylase assays also employed the same buffer conditions as for FLAG-JARID1B, with 64 nM bio-H3K27me3 peptide assayed with or without 25 nM His-FLAG-UTX enzyme or 50 nM FLAG-JMJD3 (BPS Bioscience, 50115), and 64 nM bio-H3K27me2 peptide as a positive control. JARID1A, JARID1C, UTX, and JMJD3 histone demethylase assays proceeded at 37° C. for 1 hour.” left out
as §2, with “For detection of demethylated H3K27 products, the AlphaScreen antibody/bead mix containing 7.5 mM EDTA and 0.15 μg/ml anti-H3K27me2 antibody in a final volume of 20 μl.” left out

MCF7 cells [1] = assay: Histone extraction and western blot of H3K4 methylation; assay type: cell-based, human; conditions: 10 μM, 72 hours, histone extracts
Description: MCF7 cells treated with PBIT (10 μM) or DMSO (0.1%) for 72 hours were harvested and lysed with PBS containing 0.5% Triton X-100. Nuclei were spun down by centrifugation at 6,500×g for 10 minutes, and the pellets were re-suspended in 0.2 N HCl. The histones were extracted overnight, and cellular debris was removed by centrifugation. The samples were loaded onto 16% SDS-PAGE gels and probed with antibodies against H3K4me3, H3K4me2, H3K4me1 and H3.
To determine whether PBIT affects H3K4 methylation globally in vivo, H3K4 methylation levels were analyzed in histone extracts prepared from MCF7 cells after exposure to PBIT.

MCF10A cells = assay: WST-1 cell proliferation assay; assay type: cell-based, human; conditions: 10 μM, 72 hrs
Description: (§3) The colorimetric assay (WST-1 reagent) from Roche (11644807001) was performed in 96 well white clear bottom plates (Costar, 3610). 1,000 cells were seeded per well (in quadruplicate) overnight, and PBIT was added to the cells to the indicated concentration for 72 hrs. 0.01% DMSO was included as the control. The WST-1 reagent was added (5 μl per well) for 4 hrs, and OD 440 nm absorbance (which reflects the number of viable cells) was measured with the BioTek Synergy Mx Platereader.

MCF7 cells [2] = assay: WST-1 cell proliferation assay; assay type: cell-based, human; conditions: 10 μM, 72 hrs
Description: as §3

UACC-812 cells = assay: WST-1 cell proliferation assay; assay type: cell-based, human; conditions: 10 μM, 72 hrs
Description: as §3

[3] = tested on: SKBR3-R cells (trastuzumab resistant); assay: WST-1 cell proliferation assay; assay type: cell-based; conditions: 30 μM
[4] = tested on: SKBR3-S cells (trastuzumab sensitive); assay: WST-1 cell proliferation assay; assay type: cell-based; conditions: 30 μM
Description: as §3

[5] = tested on: 1445 mouse melanoma cells; assay: WST-1 cell proliferation assay; assay type: cell-based; conditions: 0, 10 and 30 μM
Description: as §3
(§4) A panel of mouse and human melanoma cells was treated with 0, 10 and 30 μM PBIT and their proliferation rates were assessed using WST-1 assays.

YUAME melanoma cells = assay: WST-1 cell proliferation assay; assay type: cell-based, human; conditions: 0, 10 and 30 μM
Description: as §3, §4

YULAC melanoma cells = assay: WST-1 cell proliferation assay; assay type: cell-based, human; conditions: 0, 10 and 30 μM
Description: as §3, §4

YURIF melanoma cells = assay: WST-1 cell proliferation assay; assay type: cell-based, human; conditions: 0, 10 and 30 μM
Description: as §3, §4

SMILES: Cc1ccc(-n2sc3ccccc3c2=O)cc1 [PBIT, 2-4(4-methylphenyl)-1,2-benzisothiazol-3(2H)-one]
- JARID1A demethylase activity (JARID1A; compound 10 μM, 64 nM bio-H3K4me3 peptide): inhibited
- pIC50 (JARID1A; dose response, 50 μM Fe (II), read-out: IC50 against JARID1A): 5.22 and ~5.22
- UTX demethylase activity (UTX): minimal effect; also recorded: did not inhibit
- JMJD3 demethylase activity (JMJD3): minimal effect; also recorded: did not inhibit
- H3K4me1 levels (MCF7 cells [1]): did not change significantly
- H3K4me2 levels (MCF7 cells [1]): did not change significantly
- H3K4me3 levels (MCF7 cells [1]): increased; also recorded: dramatic increase
- cell proliferation (WST-1) (MCF10A cells): minimal toxicity
- cell proliferation (WST-1) (MCF7 cells [2]): did not inhibit growth; also recorded: minimal toxicity
- cell proliferation (WST-1) (UACC-812 cells): killed most
- cell proliferation (WST-1) [3]: killed most
- cell proliferation (WST-1) [4]: small inhibitory effects
- sensitivity of proliferation to treatment (WST-1) [5]: most sensitive
- sensitivity of proliferation to treatment (WST-1) (YUAME melanoma cells): sensitive
- sensitivity of proliferation to treatment (WST-1) (YULAC melanoma cells): sensitive
- sensitivity of proliferation to treatment (WST-1) (YURIF melanoma cells): least sensitive
